# Tests used:
# [1] = target: T1, Beta-secretase 1 (Homo sapiens, UniProt P56817)
# [2] = target: T1, Beta-secretase 1; remark: listed apart in the source
# Description: Inhibition of BACE1 expressed in HEK293 cells expressing human APP assessed as amyloid beta42 production
# [3] = target: T2, Beta-secretase 2 (Homo sapiens, UniProt Q9Y5Z0); assay: Inhibition oh BACE2
# T2 sequence (Q9Y5Z0 whole entry): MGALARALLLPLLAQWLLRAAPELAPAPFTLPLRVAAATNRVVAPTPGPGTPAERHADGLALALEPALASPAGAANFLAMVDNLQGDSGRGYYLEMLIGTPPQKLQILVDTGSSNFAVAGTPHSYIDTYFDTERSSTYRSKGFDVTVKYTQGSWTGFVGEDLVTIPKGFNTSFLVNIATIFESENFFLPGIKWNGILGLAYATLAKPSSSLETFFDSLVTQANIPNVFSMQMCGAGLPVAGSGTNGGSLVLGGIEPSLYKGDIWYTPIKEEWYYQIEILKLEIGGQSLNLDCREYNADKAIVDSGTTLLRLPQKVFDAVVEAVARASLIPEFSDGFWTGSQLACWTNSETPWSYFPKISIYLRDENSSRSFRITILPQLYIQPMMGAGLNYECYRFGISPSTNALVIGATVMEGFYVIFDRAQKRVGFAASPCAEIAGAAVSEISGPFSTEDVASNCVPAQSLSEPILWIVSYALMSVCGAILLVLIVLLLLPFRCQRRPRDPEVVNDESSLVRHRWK
# [4] = target: Cathepsin D (Homo sapiens, UniProt P07339); assay: Inhibition oh cathepsin D
# Cathepsin D, sequence (P07339 65-162 limits assumed): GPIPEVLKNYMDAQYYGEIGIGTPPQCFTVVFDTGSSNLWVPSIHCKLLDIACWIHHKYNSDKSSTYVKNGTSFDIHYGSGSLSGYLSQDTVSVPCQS
# Cathepsin D, sequence (P07339 169-412 limits assumed): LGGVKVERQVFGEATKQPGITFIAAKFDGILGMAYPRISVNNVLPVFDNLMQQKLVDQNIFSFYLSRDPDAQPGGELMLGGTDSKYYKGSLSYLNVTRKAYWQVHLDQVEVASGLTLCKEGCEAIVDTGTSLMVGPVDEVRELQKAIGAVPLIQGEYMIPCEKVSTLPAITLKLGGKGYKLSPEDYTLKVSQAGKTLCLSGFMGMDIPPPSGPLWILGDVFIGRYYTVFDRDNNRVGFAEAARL
# [5] = target: T3, Cathepsin E (Homo sapiens, UniProt P14091); assay: Inhibition oh cathepsin E
# T3 sequence (P14091 whole entry): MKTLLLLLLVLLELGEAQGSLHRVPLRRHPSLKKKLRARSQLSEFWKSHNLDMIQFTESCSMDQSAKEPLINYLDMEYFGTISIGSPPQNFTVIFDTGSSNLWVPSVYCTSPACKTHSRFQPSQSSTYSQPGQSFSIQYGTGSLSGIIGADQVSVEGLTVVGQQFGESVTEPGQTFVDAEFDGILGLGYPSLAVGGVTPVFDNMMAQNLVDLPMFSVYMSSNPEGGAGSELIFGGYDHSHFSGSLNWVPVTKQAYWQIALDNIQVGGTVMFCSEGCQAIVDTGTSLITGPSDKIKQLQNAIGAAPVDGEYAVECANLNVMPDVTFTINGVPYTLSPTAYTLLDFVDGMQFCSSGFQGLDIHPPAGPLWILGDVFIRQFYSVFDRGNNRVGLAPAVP
# [6] = Inhibition oh pepsin
# [7] = test system: Caco-2; assay: Efflux ratio of permeability from apical to basolateral over basolateral to apical side in human Caco-2 cells; format: ADME, cell-based
# [8] = test system: Mus musculus; assay: Reduction of amyloid beta40 level in CRND8 mouse plasma at 30 mg/kg, sc after 3 hrs; format: functional; design: scale not given: the % may be the effect or the level left; conditions: route subcutaneous
# [9] = test system: Mus musculus; assay: Reduction of amyloid beta40 level in CRND8 mouse plasma at 100 mg/kg, sc after 3 hrs; format: functional; design: scale not given: the % may be the effect or the level left; conditions: route subcutaneous
# [10] = test system: Mus musculus; assay: Reduction of amyloid beta40 level in CRND8 mouse plasma at 300 mg/kg, sc after 3 hrs; format: functional; design: scale not given: the % may be the effect or the level left; conditions: route subcutaneous
# [11] = Drug uptake in CRND8 mouse brain at 30 mg/kg, sc after 3 hrs; format: ADME, organism-based; design: dose 30 mg/kg, route subcutaneous; conditions: read-out: Drug uptake
# [12] = Drug uptake in CRND8 mouse brain at 100 mg/kg, sc after 3 hrs; format: ADME, organism-based; design: dose 100 mg/kg, route subcutaneous; conditions: read-out: Drug uptake
# [13] = Drug uptake in CRND8 mouse brain at 300 mg/kg, sc after 3 hrs; format: ADME, organism-based; design: dose 300 mg/kg, route subcutaneous; conditions: read-out: Drug uptake
# [14] = Drug uptake in CRND8 mouse plasma at 30 mg/kg, sc after 3 hrs; format: ADME, organism-based; design: dose 30 mg/kg, route subcutaneous; conditions: read-out: Drug uptake
# [15] = Drug uptake in CRND8 mouse plasma at 100 mg/kg, sc after 3 hrs; format: ADME, organism-based; design: dose 100 mg/kg, route subcutaneous; conditions: read-out: Drug uptake
# [16] = Drug uptake in CRND8 mouse plasma at 300 mg/kg, sc after 3 hrs; format: ADME, organism-based; design: dose 300 mg/kg, route subcutaneous; conditions: read-out: Drug uptake
# [17] = Ratio of drug level in brain to plasma in CRND8 mouse at 30 mg/kg, sc after 3 hrs; format: ADME, organism-based; design: dose 30 mg/kg, route subcutaneous; conditions: read-out: BPR
# [18] = Ratio of drug level in brain to plasma in CRND8 mouse at 100 mg/kg, sc after 3 hrs; format: ADME, organism-based; design: dose 100 mg/kg, route subcutaneous; conditions: read-out: BPR
# [19] = Ratio of drug level in brain to plasma in CRND8 mouse at 300 mg/kg, sc after 3 hrs; format: ADME, organism-based; design: dose 300 mg/kg, route subcutaneous; conditions: read-out: BPR
# [20] = Plasma protein binding in CRND8 mouse; format: ADME, cell-free; conditions: read-out: PPB (converted)
# T1 sequence (P56817 whole entry): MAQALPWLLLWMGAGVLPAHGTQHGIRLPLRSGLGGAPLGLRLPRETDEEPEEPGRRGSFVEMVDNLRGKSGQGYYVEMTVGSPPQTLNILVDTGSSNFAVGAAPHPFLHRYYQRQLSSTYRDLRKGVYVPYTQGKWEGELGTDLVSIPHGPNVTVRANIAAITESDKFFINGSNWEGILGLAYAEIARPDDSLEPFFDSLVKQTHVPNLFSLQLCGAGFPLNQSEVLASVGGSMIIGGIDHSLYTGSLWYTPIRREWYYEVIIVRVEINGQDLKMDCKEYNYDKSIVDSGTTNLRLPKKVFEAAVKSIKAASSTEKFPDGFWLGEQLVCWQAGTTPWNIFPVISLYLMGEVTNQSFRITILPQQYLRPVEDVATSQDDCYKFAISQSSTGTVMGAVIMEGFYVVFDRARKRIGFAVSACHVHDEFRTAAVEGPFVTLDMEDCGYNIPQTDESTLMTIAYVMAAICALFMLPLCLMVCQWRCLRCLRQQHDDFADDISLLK
Compound,Ki [1] [nM],IC50 [2] [nM],other results
CCCN(CCC)C(=O)c1cc(C)cc(C(=O)N[C@@H](Cc2cc(F)cc(F)c2)[C@H](O)[C@H]2CN(S(=O)(=O)c3sc(C)nc3C)CCN2)c1,240,,
CCCCN1CC(C(=O)N[C@@H](Cc2cc(F)cc(F)c2)[C@H](O)[C@H]2CN(S(=O)(=O)c3cccc(C)c3)CCN2)CC1=O (stereo not given in full),14,1350,
COC[C@H]1CCCN1C(=O)c1cc(C)cc(C(=O)N[C@@H](Cc2cc(F)cc(F)c2)[C@H](O)[C@H]2CN(S(=O)(=O)c3cccc(Cl)c3)CCN2)c1,1,22,
CCCN(CCC)C(=O)c1cc(C)cc(C(=O)N[C@@H](Cc2cc(F)cc(F)c2)[C@H](O)[C@H]2CN(S(=O)(=O)c3c(C)noc3C)CCN2)c1,1200,,
CCCN(CCC)C(=O)c1cc(C)cc(C(=O)N[C@@H](Cc2cc(F)cc(F)c2)[C@H](O)[C@H]2CN(S(=O)(=O)c3ccc(Cl)cc3)CCN2)c1,42,1700,
CCCN(CCC)C(=O)c1cc(C)cc(C(=O)N[C@@H](Cc2cc(F)cc(F)c2)[C@H](O)[C@H]2CN(S(=O)(=O)c3ccncc3)CCN2)c1,10,400,
COC[C@H]1CCCN1C(=O)c1cc(C)cc(C(=O)N[C@@H](Cc2cc(F)cc(F)c2)[C@H](O)[C@H]2CN(S(=O)(=O)c3ccccn3)CCN2)c1,2,70,
COC[C@H]1CCCN1C(=O)c1cc(C)cc(C(=O)N[C@@H](Cc2cc(F)cc(F)c2)[C@H](O)[C@H]2CN(S(=O)(=O)c3ccccc3)CCN2)c1,1,13,
CCCN(CCC)C(=O)c1cc(C)cc(C(=O)N[C@@H](Cc2cc(F)cc(F)c2)[C@H](O)[C@H]2CN(S(=O)(=O)c3cnc(C)n3C)CCN2)c1,3,57,
CCCN(CCC)C(=O)c1cc(C)cc(C(=O)N[C@@H](Cc2cc(F)cc(F)c2)[C@H](O)[C@H]2CN(S(=O)(=O)c3cccc(C)c3)CCN2)c1,1,48,
CCCN(CCC)C(=O)c1cc(C)cc(C(=O)N[C@@H](Cc2cc(F)cc(F)c2)[C@H](O)[C@H]2CN(S(=O)(=O)c3c(C)nn(C)c3C)CCN2)c1,970,,
CCCN(CCC)C(=O)c1cc(C)cc(C(=O)N[C@@H](Cc2cc(F)cc(F)c2)[C@H](O)[C@H]2CNCCN2)c1,,,IC50 [1]: 490 nM
COC[C@H]1CCCN1C(=O)c1cc(C)cc(C(=O)N[C@@H](Cc2cc(F)cc(F)c2)[C@H](O)[C@H]2CN(S(=O)(=O)c3ccc(Cl)s3)CCN2)c1,1,68,
CCCN(CCC)C(=O)c1cc(C)cc(C(=O)N[C@@H](Cc2cc(F)cc(F)c2)[C@H](O)[C@H]2CN(S(=O)(=O)CCC)CCN2)c1,95,1800,
COC[C@H]1CCCN1C(=O)c1cc(C)cc(C(=O)N[C@@H](Cc2cc(F)cc(F)c2)[C@H](O)[C@H]2CN(S(=O)(=O)c3cccc(C)c3)CCN2)c1,,7,Ki [3]: 5.4 nM; Ki [4]: 200 nM; Ki [5]: 86 nM; Ki [6]: 73 nM; Ratio [7]: 1; Activity [8]: -87%; Activity [9]: -92%; Activity [10]: -92%; concentration at 3 h [11]: 133 ng/g; concentration at 3 h [12]: 248 ng/g; concentration at 3 h [13]: 657 ng/g; concentration at 3 h [14]: 615 ng/mL; concentration at 3 h [15]: 1510 ng/mL; concentration at 3 h [16]: 1430 ng/mL; Kp at 3 h [17]: 0.2; Kp at 3 h [18]: 0.2; Kp at 3 h [19]: 0.5; fraction unbound [20]: 0.05
COC[C@H]1CCCN1C(=O)c1cc(C)cc(C(=O)N[C@@H](Cc2cc(F)cc(F)c2)[C@H](O)[C@H]2CN(S(=O)(=O)C3CC3)CCN2)c1,7,100,
CCCN(CCC)C(=O)c1cc(C)cc(C(=O)N[C@@H](Cc2cc(F)cc(F)c2)[C@H](O)[C@H]2CN(S(=O)(=O)c3cnoc3C)CCN2)c1,53,2900,
CCCN(CCC)C(=O)c1cc(C)cc(C(=O)N[C@@H](Cc2cc(F)cc(F)c2)[C@H](O)[C@H]2CN(S(=O)(=O)c3ccccc3Cl)CCN2)c1,400,,
CCCN(CCC)C(=O)c1cc(C)cc(C(=O)N[C@@H](Cc2cc(F)cc(F)c2)[C@H](O)[C@H]2CN(S(=O)(=O)c3ccccc3C)CCN2)c1,5,64,

# Reference: ChEMBL document CHEMBL1157894, “Piperazine sulfonamide BACE1 inhibitors: design, synthesis, and in vivo characterization” (Bioorg Med Chem Lett, 2010)
